Experimental data: the supplement of paper PMC11451515

Key:
Details in all cases: 48 h
NOMO1 [1] = test: cell viability relative to DMSO control; higher = less cytotoxic
Outline: (§1)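 Viability is expressed as a percentage of DMSO wells within each plate, and cell-free wells serve as background. Seeding densities in the 1536-well plates (5 μl) were 500 cells/well for NOMO1 or SEM leukemia cells and 1000 cells/well for P12-Ichikawa. Each line was adapted for at least four passages in each medium. Library compounds in DMSO were pin-dosed at 47 μM to 0.79 nM (11 points, threefold), and CellTiter-Glo One luminescence was read after 48 h at 37°C.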

SEM cells [2] = test: as above
Outline: as §1

P12-Ichikawa [3] = test: as above
Outline: as §1

NOMO1 [4] = test: AUC of viability dose-response curve (% viability x log10 dose units); higher = less sensitive
Outline: (§2)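 In 1536-well plates, leukemia cells adapted to each medium (500 or 1000 cells/well) were exposed for 48 h at 37°C to library compounds in DMSO across 11 threefold doses, 47 μM down to 0.79 nM. Viability was read by CellTiter-Glo One luminescence and normalised per plate to DMSO and cell-free wells. A four-parameter log-logistic fit over log10 doses was integrated by trapezoidal rule. This yielded the area under the curve, with over-full-viability curves scaled and quality-control failures dropped.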

SEM cells [5] = test: as above
Outline: as §2

P12-Ichikawa [6] = test: as above
Outline: as §2

COC(=O)C/1=C(C)/N/C(=C(\C1C2=CC(=CC=C2)[N+]([O-])=O)C(=O)OCCCN3CCC(CC3)(C4=CC=CC=C4)C5=CC=CC=C5)C (centres undefined)
cell viability [%]
Details	NOMO1 [1]	P12-Ichikawa [3]	SEM cells [2]
HPLM + 10% dialyzed FBS, 0.000781 µM	117	109	113
HPLM + 10% dialyzed FBS, 0.00234 µM	114	101	94.1
HPLM + 10% dialyzed FBS, 0.00702 µM	104	104	114
HPLM + 10% dialyzed FBS, 0.0211 µM	104	101	42
HPLM + 10% dialyzed FBS, 0.0632 µM	108	106	95.5
HPLM + 10% dialyzed FBS, 0.19 µM	114	101	104
HPLM + 10% dialyzed FBS, 0.569 µM	107	96.1	100
HPLM + 10% dialyzed FBS, 1.71 µM	107	107	109
HPLM + 10% dialyzed FBS, 5.12 µM	100	97.3	90.3
HPLM + 10% dialyzed FBS, 15.4 µM	102	92.6	94.8
HPLM + 10% dialyzed FBS, 46.1 µM	87.1	95	98.6
RPMI 5 mM glucose + 10% FBS, 0.000781 µM	101	107	93.4
RPMI 5 mM glucose + 10% FBS, 0.00234 µM	99.2	103	97.7
RPMI 5 mM glucose + 10% FBS, 0.00702 µM	93	107	98.2
RPMI 5 mM glucose + 10% FBS, 0.0211 µM	92.4	81.4	39.7
RPMI 5 mM glucose + 10% FBS, 0.0632 µM	97.7	95.7	90.3
RPMI 5 mM glucose + 10% FBS, 0.19 µM	93.5	95.3	97.8
RPMI 5 mM glucose + 10% FBS, 0.569 µM	88.3	98.4	98
RPMI 5 mM glucose + 10% FBS, 1.71 µM	90.7	89.6	95.7
RPMI 5 mM glucose + 10% FBS, 5.12 µM	83.3	89.6	104
RPMI 5 mM glucose + 10% FBS, 15.4 µM	95.3	92.4	106
RPMI 5 mM glucose + 10% FBS, 46.1 µM	81.8	93	91.1
RPMI 5 mM glucose + 10% dialyzed FBS, 0.000781 µM	107	103	100
RPMI 5 mM glucose + 10% dialyzed FBS, 0.00234 µM	93.8	102	92.3
RPMI 5 mM glucose + 10% dialyzed FBS, 0.00702 µM	95.5	99.3	100
RPMI 5 mM glucose + 10% dialyzed FBS, 0.0211 µM	97.1	88.3	43.2
RPMI 5 mM glucose + 10% dialyzed FBS, 0.0632 µM	107	98.8	97.2
RPMI 5 mM glucose + 10% dialyzed FBS, 0.19 µM	109	95	95.6
RPMI 5 mM glucose + 10% dialyzed FBS, 0.569 µM	101	91.4	101
RPMI 5 mM glucose + 10% dialyzed FBS, 1.71 µM	94.4	94.9	112
RPMI 5 mM glucose + 10% dialyzed FBS, 5.12 µM	91.2	94	96.5
RPMI 5 mM glucose + 10% dialyzed FBS, 15.4 µM	90.5	94.4	100
RPMI 5 mM glucose + 10% dialyzed FBS, 46.1 µM	98.7	94.6	102

AUC of viability dose-response curve
Details	NOMO1 [4]	P12-Ichikawa [6]	SEM cells [5]
HPLM + 10% dialyzed FBS	439	453	458
RPMI 5 mM glucose + 10% FBS	441	429	439
RPMI 5 mM glucose + 10% dialyzed FBS	464	445	441

Oc1ccc2ccccc2c1SSc1c(O)ccc2ccccc12
cell viability [%]
Details	NOMO1 [1]	P12-Ichikawa [3]	SEM cells [2]
HPLM + 10% dialyzed FBS, 0.000781 µM	94.5	98.4	95
HPLM + 10% dialyzed FBS, 0.00234 µM	101	100	102
HPLM + 10% dialyzed FBS, 0.00702 µM	101	105	109
HPLM + 10% dialyzed FBS, 0.0211 µM	126	108	116
HPLM + 10% dialyzed FBS, 0.0632 µM	124	106	106
HPLM + 10% dialyzed FBS, 0.19 µM	135	109	85.8
HPLM + 10% dialyzed FBS, 0.569 µM	111	110	99.5
HPLM + 10% dialyzed FBS, 1.71 µM	125	109	96.2
HPLM + 10% dialyzed FBS, 5.12 µM	114	109	108
HPLM + 10% dialyzed FBS, 15.4 µM	92.8	105	97.3
HPLM + 10% dialyzed FBS, 46.1 µM	103	94.2	9.05
RPMI 5 mM glucose + 10% FBS, 0.000781 µM	98.9	105	104
RPMI 5 mM glucose + 10% FBS, 0.00234 µM	94.4	114	109
RPMI 5 mM glucose + 10% FBS, 0.00702 µM	111	106	95
RPMI 5 mM glucose + 10% FBS, 0.0211 µM	119	107	102
RPMI 5 mM glucose + 10% FBS, 0.0632 µM	108	101	111
RPMI 5 mM glucose + 10% FBS, 0.19 µM	109	109	79.1
RPMI 5 mM glucose + 10% FBS, 0.569 µM	110	116	103
RPMI 5 mM glucose + 10% FBS, 1.71 µM	107	109	99.4
RPMI 5 mM glucose + 10% FBS, 5.12 µM	96.9	106	104
RPMI 5 mM glucose + 10% FBS, 15.4 µM	104	101	78.9
RPMI 5 mM glucose + 10% FBS, 46.1 µM	96.4	62.2	30
RPMI 5 mM glucose + 10% dialyzed FBS, 0.000781 µM	85.3	88.3	95
RPMI 5 mM glucose + 10% dialyzed FBS, 0.00234 µM	93.9	98.9	99.6
RPMI 5 mM glucose + 10% dialyzed FBS, 0.00702 µM	117	95.5	84.3
RPMI 5 mM glucose + 10% dialyzed FBS, 0.0211 µM	116	109	113
RPMI 5 mM glucose + 10% dialyzed FBS, 0.0632 µM	105	99.2	92.5
RPMI 5 mM glucose + 10% dialyzed FBS, 0.19 µM	105	104	66.9
RPMI 5 mM glucose + 10% dialyzed FBS, 0.569 µM	109	105	93.1
RPMI 5 mM glucose + 10% dialyzed FBS, 1.71 µM	105	103	104
RPMI 5 mM glucose + 10% dialyzed FBS, 5.12 µM	96.3	98.3	87.6
RPMI 5 mM glucose + 10% dialyzed FBS, 15.4 µM	100	94.3	74.7
RPMI 5 mM glucose + 10% dialyzed FBS, 46.1 µM	78.9	52.3	20.1

AUC of viability dose-response curve
Details	NOMO1 [4]	P12-Ichikawa [6]	SEM cells [5]
HPLM + 10% dialyzed FBS	470	474	453
RPMI 5 mM glucose + 10% FBS	469	464	450
RPMI 5 mM glucose + 10% dialyzed FBS	469	463	417

Cc1ccc(/C=N/NC(=O)c2ccccc2Oc2ccccc2)o1
cell viability [%]
Details	NOMO1 [1]	P12-Ichikawa [3]	SEM cells [2]
HPLM + 10% dialyzed FBS, 0.000781 µM	102	95.5	102
HPLM + 10% dialyzed FBS, 0.00234 µM	100	107	101
HPLM + 10% dialyzed FBS, 0.00702 µM	104	91.4	87
HPLM + 10% dialyzed FBS, 0.0211 µM	97.7	96.5	85.8
HPLM + 10% dialyzed FBS, 0.0632 µM	101	100	109
HPLM + 10% dialyzed FBS, 0.19 µM	102	98.3	96.9
HPLM + 10% dialyzed FBS, 0.569 µM	104	94.6	89.6
HPLM + 10% dialyzed FBS, 1.71 µM	91.3	94.9	94.9
HPLM + 10% dialyzed FBS, 5.12 µM	98	89.7	93.5
HPLM + 10% dialyzed FBS, 15.4 µM	81.5	89.7	91.7
HPLM + 10% dialyzed FBS, 46.1 µM	69.6	79.4	90.9
RPMI 5 mM glucose + 10% FBS, 0.000781 µM	102	94	107
RPMI 5 mM glucose + 10% FBS, 0.00234 µM	96.4	99	98.2
RPMI 5 mM glucose + 10% FBS, 0.00702 µM	97.2	90.6	93
RPMI 5 mM glucose + 10% FBS, 0.0211 µM	88.7	88.5	106
RPMI 5 mM glucose + 10% FBS, 0.0632 µM	86.7	91.3	102
RPMI 5 mM glucose + 10% FBS, 0.19 µM	91.2	90.8	104
RPMI 5 mM glucose + 10% FBS, 0.569 µM	88	91.6	99.4
RPMI 5 mM glucose + 10% FBS, 1.71 µM	80.4	92.2	104
RPMI 5 mM glucose + 10% FBS, 5.12 µM	83.5	95.1	93.6
RPMI 5 mM glucose + 10% FBS, 15.4 µM	83.3	85.8	98.6
RPMI 5 mM glucose + 10% FBS, 46.1 µM	80.9	63.9	90.5
RPMI 5 mM glucose + 10% dialyzed FBS, 0.000781 µM	98.9	85.2	147
RPMI 5 mM glucose + 10% dialyzed FBS, 0.00234 µM	96.3	82.6	102
RPMI 5 mM glucose + 10% dialyzed FBS, 0.00702 µM	95.1	87.7	91.7
RPMI 5 mM glucose + 10% dialyzed FBS, 0.0211 µM	89.4	89.4	102
RPMI 5 mM glucose + 10% dialyzed FBS, 0.0632 µM	113	90.3	91.8
RPMI 5 mM glucose + 10% dialyzed FBS, 0.19 µM	101	90.3	101
RPMI 5 mM glucose + 10% dialyzed FBS, 0.569 µM	95.6	88.8	97.5
RPMI 5 mM glucose + 10% dialyzed FBS, 1.71 µM	96.3	82.4	97.4
RPMI 5 mM glucose + 10% dialyzed FBS, 5.12 µM	85.9	82.3	66.5
RPMI 5 mM glucose + 10% dialyzed FBS, 15.4 µM	96.9	86.4	92.5
RPMI 5 mM glucose + 10% dialyzed FBS, 46.1 µM	86.3	78.3	73.4

AUC of viability dose-response curve
Details	NOMO1 [4]	P12-Ichikawa [6]	SEM cells [5]
HPLM + 10% dialyzed FBS	456	452	452
RPMI 5 mM glucose + 10% FBS	418	432	468
RPMI 5 mM glucose + 10% dialyzed FBS	457	410	388
